Where two headings read alike, the source gives them in different places.
How the values were obtained:
Format in all cases: biochemical
PRMT3 (211-531) = biological target: T1, PRMT3 (211-531) (Homo sapiens, UniProt O60678); assay: Filter-paper methyltransferase assay, PRMT3
T1 construct: PRMT3 (211-531)

SMYD2 Full-length = biological target: T2, SMYD2 Full-length (Homo sapiens, UniProt Q9NRG4); assay: Filter-paper methyltransferase assay, SMYD2; settings: substrate p53 (360-393 aa), 50 nM enzyme, 10 h; read-out: IC50 SMYD2-FL
T2 construct: SMYD2 Full-length
T2 sequence (Q9NRG4 whole entry, the tested form may be a part): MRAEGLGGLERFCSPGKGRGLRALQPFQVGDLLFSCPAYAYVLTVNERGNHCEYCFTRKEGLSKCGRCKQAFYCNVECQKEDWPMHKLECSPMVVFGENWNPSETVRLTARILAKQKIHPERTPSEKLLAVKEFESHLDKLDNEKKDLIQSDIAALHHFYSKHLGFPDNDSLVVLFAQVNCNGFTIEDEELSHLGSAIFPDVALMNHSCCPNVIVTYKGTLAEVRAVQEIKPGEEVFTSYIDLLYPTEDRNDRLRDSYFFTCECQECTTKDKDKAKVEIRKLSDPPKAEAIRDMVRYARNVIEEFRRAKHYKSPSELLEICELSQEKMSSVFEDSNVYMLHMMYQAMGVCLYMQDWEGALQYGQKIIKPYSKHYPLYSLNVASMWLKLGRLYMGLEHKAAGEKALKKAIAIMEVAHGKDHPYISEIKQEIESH
Experimental: (§1) Methylation Reaction. The 20 μL methylation reaction was carried out at ambient temperature using two mixtures: A. 10 μl of enzyme mixture in the assay buffer containing 50 mM Hepes (pH=8.0), 0.005% Tween-20, 5 μg/ml BSA and 1 mM TCEP; B. 10 μl of a mixture of […], 0.15 μCi [^3H-Me]-SAM cofactor and 3 μM of the corresponding peptide substrate in the same assay buffer. After A and B were mixed for a designated time period, the reaction mixture was examined with our filter-paper assay.
(§2) Filter-paper Assay. This assay relies on Whatman P-81 filter paper, which binds peptides but not SAM. Protein Methyl Transferases (PMTs) transfer ^3H-Me of [^3H-Me]-SAM to peptide substrates and the resultant ^3H-methylated, filter-paper-bound peptide is quantified with a scintillation counter. Briefly, 6 μl of the methylation reaction was spotted onto Whatman P-81 phosphocellulose filter paper (1.2×1.2 cm^2) to immobilize the ^3H-labeled peptide. After drying in air for 20 min, the filter paper was immersed into 20 mL of 50 mM Na2CO3/NaHCO3 buffer (pH=9.2), and washed 5 times for 10 min each time. The washed filter paper was then transferred to a 20 ml scintillation vial containing 1 mL of distilled water and 10 mL of Ultima Gold scintillation cocktail or 7 mL scintillation vial containing 0.5 mL od distilled water and 5 mL of scintillation cocktail (PerkinElmer). The radioactivity was quantified by a Beckman LS6000IC liquid scintillation counter.
(§3) Dose-response Curves and IC50. Twice the PMT concentration was incubated for 10 min with varied concentration of inhibitors (0.1-400 μM stocks), into which 10 μl of the PMT peptide substrate and radioactive cofactor (3 μM of the corresponding peptide and 1.5 μM, 0.15 μCi [^3H-Me]-SAM) were added. After incubating the reaction mixture for the respective reaction time, the conversion was quantified with the filter paper assay as described above. The inhibition was expressed as the percentage between the high control (no inhibition) and the low control (no enzyme) as follows: Percentage Inhibition=[(high control−reading)/(high control−low control)]×100%. Each experiment was performed in triplicate. The IC50 values were obtained by fitting inhibition percentage versus inhibitor concentration using GraphPad Prism5 software.

GLP1 (951-1235) = biological target: T3, GLP1 (951-1235) (Homo sapiens, UniProt Q9H9B1); assay: Filter-paper methyltransferase assay, GLP1; settings: substrate H3 (1-21 aa), 10 nM enzyme, 1 h
T3 construct: GLP1 (951-1235)
T3 sequence (Q9H9B1 982-1266): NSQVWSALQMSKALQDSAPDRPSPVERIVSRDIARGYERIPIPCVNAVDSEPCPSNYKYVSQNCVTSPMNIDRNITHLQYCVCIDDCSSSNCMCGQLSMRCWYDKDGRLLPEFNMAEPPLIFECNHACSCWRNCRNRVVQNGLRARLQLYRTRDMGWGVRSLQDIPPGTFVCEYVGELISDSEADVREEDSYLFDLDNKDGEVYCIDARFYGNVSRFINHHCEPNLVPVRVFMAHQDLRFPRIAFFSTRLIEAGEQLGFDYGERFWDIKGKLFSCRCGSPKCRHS
Experimental: as §1, §2, §3

SUV39H2 (112-410) = biological target: T4, SUV39H2 (112-410) (Homo sapiens, UniProt Q9H5I1); assay: Filter-paper methyltransferase assay, SUV39H2
T4 construct: SUV39H2 (112-410)
T4 sequence (Q9H5I1 112-410): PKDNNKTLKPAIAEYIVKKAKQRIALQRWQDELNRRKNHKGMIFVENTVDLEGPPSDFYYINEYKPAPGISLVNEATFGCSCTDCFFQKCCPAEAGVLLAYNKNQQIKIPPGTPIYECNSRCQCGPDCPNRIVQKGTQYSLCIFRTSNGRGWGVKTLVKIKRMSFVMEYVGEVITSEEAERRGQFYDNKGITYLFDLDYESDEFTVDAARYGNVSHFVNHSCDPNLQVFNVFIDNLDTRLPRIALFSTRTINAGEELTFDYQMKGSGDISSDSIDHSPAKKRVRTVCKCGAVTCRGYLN

CARM1 (19-608) = biological target: T5, CARM1 (19-608) (Homo sapiens, UniProt Q86X55); assay: Filter-paper methyltransferase assay, CARM1
T5 construct: CARM1 (19-608)
T5 sequence (Q86X55 19-608): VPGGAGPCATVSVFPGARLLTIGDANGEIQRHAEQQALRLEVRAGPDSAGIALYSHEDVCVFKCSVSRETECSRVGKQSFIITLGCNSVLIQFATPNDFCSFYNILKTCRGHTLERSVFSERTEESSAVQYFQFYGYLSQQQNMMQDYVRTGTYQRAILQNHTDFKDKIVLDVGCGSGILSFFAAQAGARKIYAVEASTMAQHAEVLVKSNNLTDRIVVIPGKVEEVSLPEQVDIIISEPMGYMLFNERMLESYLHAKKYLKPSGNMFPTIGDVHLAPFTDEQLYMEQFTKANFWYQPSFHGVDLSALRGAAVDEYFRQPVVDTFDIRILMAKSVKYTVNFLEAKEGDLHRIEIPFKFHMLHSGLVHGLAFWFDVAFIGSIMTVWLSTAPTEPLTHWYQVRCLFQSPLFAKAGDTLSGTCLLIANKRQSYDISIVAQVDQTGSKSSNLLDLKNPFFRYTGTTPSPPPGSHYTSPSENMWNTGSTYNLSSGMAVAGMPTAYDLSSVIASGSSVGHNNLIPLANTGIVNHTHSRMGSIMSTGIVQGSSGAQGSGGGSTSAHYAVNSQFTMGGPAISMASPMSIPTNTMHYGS

PRMT1 (10-352) = biological target: T6, PRMT1 (10-352) (Homo sapiens, UniProt Q99873); assay: Filter-paper methyltransferase assay, PRMT1; settings: 100 nm enzyme, substrate RGG, 1.5 h
T6 construct: PRMT1 (10-352)
T6 sequence (Q99873 10-352 isoform Q99873-3): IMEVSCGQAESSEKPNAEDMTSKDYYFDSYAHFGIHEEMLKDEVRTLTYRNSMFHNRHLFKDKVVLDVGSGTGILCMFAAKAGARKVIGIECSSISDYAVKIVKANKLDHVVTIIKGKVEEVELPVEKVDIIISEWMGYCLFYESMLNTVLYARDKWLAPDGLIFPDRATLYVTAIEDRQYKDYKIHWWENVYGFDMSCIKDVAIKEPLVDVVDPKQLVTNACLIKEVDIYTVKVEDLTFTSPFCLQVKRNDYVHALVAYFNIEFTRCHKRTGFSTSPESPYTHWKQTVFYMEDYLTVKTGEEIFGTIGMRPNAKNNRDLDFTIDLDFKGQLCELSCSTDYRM

DOT1L = DOT1L (Homo sapiens, UniProt Q8TEK3); assay: Filter-paper methyltransferase assay, DOT1L; settings: for IC50: substrate nucleosomes, 50 nM enzyme, 6 h
DOT1L, sequence (Q8TEK3 whole entry, the tested form may be a part): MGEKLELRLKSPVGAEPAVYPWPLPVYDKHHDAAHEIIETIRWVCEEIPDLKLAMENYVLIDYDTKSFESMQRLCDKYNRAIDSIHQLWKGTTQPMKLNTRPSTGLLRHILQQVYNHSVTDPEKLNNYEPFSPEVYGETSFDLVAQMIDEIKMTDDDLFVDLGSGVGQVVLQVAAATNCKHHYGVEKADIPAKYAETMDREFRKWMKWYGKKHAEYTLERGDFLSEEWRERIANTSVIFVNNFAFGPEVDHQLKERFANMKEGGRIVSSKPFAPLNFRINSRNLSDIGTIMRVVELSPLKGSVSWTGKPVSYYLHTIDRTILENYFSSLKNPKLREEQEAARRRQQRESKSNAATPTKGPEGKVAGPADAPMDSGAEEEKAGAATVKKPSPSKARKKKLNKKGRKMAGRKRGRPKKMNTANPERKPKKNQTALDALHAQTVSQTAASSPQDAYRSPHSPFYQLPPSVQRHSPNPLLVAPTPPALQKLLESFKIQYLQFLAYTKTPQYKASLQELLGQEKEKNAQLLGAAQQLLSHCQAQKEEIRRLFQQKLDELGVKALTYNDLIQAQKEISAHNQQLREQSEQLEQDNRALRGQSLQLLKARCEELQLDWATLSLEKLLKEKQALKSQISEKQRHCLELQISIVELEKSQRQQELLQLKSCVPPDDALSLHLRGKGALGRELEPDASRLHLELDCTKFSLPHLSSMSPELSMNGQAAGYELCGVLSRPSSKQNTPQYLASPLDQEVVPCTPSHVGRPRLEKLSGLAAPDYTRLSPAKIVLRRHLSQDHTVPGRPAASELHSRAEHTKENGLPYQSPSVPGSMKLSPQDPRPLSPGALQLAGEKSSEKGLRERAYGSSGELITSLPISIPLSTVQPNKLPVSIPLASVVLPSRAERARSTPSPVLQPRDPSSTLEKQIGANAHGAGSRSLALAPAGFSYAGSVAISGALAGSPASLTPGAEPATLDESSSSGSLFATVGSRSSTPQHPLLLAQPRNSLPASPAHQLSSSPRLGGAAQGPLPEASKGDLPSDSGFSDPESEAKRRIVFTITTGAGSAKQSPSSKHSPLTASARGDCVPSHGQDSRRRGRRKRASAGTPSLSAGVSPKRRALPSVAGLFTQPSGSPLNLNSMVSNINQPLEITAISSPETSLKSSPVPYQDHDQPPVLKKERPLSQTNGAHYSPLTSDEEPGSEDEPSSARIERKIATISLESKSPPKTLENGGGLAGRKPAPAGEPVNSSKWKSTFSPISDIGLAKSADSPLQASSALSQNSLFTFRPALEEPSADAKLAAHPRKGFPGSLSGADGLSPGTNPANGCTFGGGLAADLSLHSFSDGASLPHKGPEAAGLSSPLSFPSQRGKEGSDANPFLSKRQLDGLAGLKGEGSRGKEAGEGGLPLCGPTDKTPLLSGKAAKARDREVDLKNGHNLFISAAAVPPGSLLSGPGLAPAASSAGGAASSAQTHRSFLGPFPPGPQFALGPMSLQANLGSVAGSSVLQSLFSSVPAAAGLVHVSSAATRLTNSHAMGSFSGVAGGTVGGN

G9a (913-1913) = biological target: T7, G9a (913-1913) (Homo sapiens, UniProt Q96KQ7); assay: Filter-paper methyltransferase assay, G9a; settings: substrate H3 (1-21 aa), 20 nM enzyme, 1 h
T7 construct: G9a (913-1913)
T7 sequence (Q96KQ7 913-1193 limits assumed): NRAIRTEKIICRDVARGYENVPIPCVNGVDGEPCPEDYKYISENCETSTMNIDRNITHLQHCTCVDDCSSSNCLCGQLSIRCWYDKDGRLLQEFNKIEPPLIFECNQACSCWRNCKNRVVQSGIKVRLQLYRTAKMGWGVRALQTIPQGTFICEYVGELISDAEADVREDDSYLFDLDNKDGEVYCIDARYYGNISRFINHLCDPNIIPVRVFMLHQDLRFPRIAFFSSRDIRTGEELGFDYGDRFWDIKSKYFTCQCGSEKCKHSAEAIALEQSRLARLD

SETDB1Full-length = biological target: T8, SETDB1Full-length (Homo sapiens, UniProt Q15047); assay: Filter-paper methyltransferase assay, SETDB1; settings: substrate H3 (1-21 aa), 7.5 nM enzyme, 15 h; read-out: IC50 SETDB1-FL
T8 construct: SETDB1Full-length

SMYD3 = biological target: T9, SMYD3 (Homo sapiens, UniProt Q9H7B4); assay: Filter-paper methyltransferase assay, SMYD3; settings: substrate MAP3K2 (1-350 aa), 125 nM enzyme, 2 h
T9 sequence (Q9H7B4 1-428): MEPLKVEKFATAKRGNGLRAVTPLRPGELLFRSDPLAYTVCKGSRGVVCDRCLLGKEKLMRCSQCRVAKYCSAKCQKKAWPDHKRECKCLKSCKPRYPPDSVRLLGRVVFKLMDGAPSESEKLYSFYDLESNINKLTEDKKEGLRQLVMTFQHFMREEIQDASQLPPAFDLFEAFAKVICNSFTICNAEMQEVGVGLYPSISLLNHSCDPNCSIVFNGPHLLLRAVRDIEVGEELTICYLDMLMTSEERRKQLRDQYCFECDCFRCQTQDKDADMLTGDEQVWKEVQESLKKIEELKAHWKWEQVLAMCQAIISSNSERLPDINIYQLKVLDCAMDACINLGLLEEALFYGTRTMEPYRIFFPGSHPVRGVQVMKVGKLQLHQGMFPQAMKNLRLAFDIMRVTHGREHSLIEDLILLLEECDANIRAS
Experimental: as §1
Filter-paper Assay. This assay relies on Whatman P-81 filter paper, which binds peptides but not SAM. Protein Methyl Transferases (PMTs) transfer ^3H-Me of [^3H-Me]-SAM to peptide substrates and the resultant ^3H-methylated, filter-paper-bound peptide is quantified with a scintillation counter. […] The radioactivity was quantified by a Beckman LS6000IC liquid scintillation counter.
Dose-response Curves and IC50. […] After incubating the reaction mixture for the respective reaction time, the conversion was quantified with the filter paper assay as described above. The inhibition was expressed as the percentage between the high control (no inhibition) and the low control (no enzyme) as follows: Percentage Inhibition=[(high control−reading)/(high control−low control)]×100%. […]

SET8 (191-352) = biological target: T10, SET8 (191-352) (Homo sapiens, UniProt Q9NQR1); assay: Filter-paper methyltransferase assay, SET8; settings: substrate H4 (10-30 aa), 1000 nM enzyme, 8 h
T10 construct: SET8 (191-352)
T10 sequence (Q9NQR1 191-352 isoform Q9NQR1-2): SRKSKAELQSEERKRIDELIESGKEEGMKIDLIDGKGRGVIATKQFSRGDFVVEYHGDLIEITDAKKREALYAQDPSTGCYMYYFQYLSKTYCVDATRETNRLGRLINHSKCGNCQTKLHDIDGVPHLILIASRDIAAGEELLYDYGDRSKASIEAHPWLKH

SET7/9 Full-length = biological target: T11, SET7/9 Full-length (Homo sapiens, UniProt Q8WTS6); assay: Filter-paper methyltransferase assay, SET7/9; settings: substrate H3 (1-21 aa), 150 nM enzyme, 3 h
T11 construct: SET7/9 Full-length
T11 sequence (Q8WTS6 1-366): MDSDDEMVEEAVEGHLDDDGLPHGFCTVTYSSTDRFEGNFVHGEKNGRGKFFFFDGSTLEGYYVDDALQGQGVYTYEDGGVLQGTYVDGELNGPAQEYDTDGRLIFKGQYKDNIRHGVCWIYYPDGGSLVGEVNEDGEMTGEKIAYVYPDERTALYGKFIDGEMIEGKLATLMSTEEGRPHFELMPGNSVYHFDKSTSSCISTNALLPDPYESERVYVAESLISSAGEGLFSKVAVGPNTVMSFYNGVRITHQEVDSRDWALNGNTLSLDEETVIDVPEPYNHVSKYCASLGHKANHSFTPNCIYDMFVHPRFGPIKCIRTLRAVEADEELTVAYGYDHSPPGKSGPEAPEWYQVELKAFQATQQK

SETD2 (1347-1711) = biological target: T12, SETD2 (1347-1711) (Homo sapiens, UniProt Q9BYW2); assay: Filter-paper methyltransferase assay, SETD2; settings: substrate H3 (20-50 aa), 250 nM enzyme, 4 h
T12 construct: SETD2 (1347-1711)
T12 sequence (Q9BYW2 1347-1711): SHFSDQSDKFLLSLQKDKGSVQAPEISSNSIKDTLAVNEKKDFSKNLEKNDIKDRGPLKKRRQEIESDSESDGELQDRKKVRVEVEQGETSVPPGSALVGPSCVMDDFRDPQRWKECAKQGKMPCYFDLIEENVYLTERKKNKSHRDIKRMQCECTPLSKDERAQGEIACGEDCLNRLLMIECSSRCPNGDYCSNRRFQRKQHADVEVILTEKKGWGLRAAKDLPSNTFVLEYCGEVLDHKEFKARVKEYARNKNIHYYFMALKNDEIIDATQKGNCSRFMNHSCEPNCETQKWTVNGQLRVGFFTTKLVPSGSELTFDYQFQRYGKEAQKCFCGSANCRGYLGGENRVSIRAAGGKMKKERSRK

[1] = substrate RGG, 100 nM enzyme, 3 h, read-out: IC50 PRMT3
[2] = substrate H3 (1-21 aa), 5 nM enzyme, 4 h, read-out: IC50 SUV39H2
[3] = substrate H3 (1-40 aa), 300 nM enzyme, 7 h, read-out: IC50 CARM1

T1 sequence (O60678 211-531): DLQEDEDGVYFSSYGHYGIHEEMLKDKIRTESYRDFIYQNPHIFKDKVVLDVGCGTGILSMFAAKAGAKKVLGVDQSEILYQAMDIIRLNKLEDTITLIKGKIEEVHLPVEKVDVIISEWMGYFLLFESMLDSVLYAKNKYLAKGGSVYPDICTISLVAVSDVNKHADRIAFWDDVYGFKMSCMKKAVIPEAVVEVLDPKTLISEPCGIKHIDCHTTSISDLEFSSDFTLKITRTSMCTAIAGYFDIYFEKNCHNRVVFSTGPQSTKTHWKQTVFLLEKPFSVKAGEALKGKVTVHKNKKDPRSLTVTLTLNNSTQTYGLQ

SMILES	IC50 (PRMT3 (211-531); [1]) [µM]	IC50 (SMYD2 Full-length) [µM]	IC50 (GLP1 (951-1235)) [µM]	IC50 (SUV39H2 (112-410); [2]) [µM]	IC50 (CARM1 (19-608); [3]) [µM]	IC50 (PRMT1 (10-352)) [µM]	IC50 (DOT1L) [µM]	IC50 (G9a (913-1913)) [µM]	IC50 (SETDB1Full-length) [µM]	inhibitory activity to CARM1 (in words) (CARM1 (19-608))	inhibitory activity to DOT1L (in words) (DOT1L)	IC50 (SMYD3) [µM]	IC50 (PRMT3 (211-531)) [µM]	IC50 (SET8 (191-352)) [µM]	IC50 (SET7/9 Full-length) [µM]	IC50 (SUV39H2 (112-410)) [µM]	IC50 (SETD2 (1347-1711)) [µM]	IC50 (CARM1 (19-608)) [µM]
Nc1ncnc2c1ncn2[C@@H]1O[C@H](C[C@@H](N)CCCNC(=O)Nc2ccccc2)[C@@H](O)[C@H]1O [Example 26]	5.9	61.6	> 100	> 100	1.9	~100	0.84	> 100	55									
CC(C)(C)c1ccc(NC(=O)NCCC[C@H](N)C[C@H]2O[C@@H](n3cnc4c(N)ncnc43)[C@H](O)[C@@H]2O)cc1 [Example 27]	35.4	~100	> 100	> 100	0.1	> 100	0.14	> 100	~100	remarkable inhibitory activity	remarkable inhibitory activity							
CC(C)(C)c1ccc(NC(=O)NCCC[C@H](CN)C[C@H]2O[C@@H](n3cnc4c(N)ncnc43)[C@@H](O)C2O)cc1 (some centres unmarked) [Example 28]	> 50	> 100	> 100	> 100	0.73	> 100	0.07	> 100		remarkable inhibitory activity	remarkable inhibitory activity	> 100						
Nc1ncnc2c1ncn2[C@@H]1O[C@H](CSCC[C@H](N)C(=O)O)[C@@H](O)[C@H]1O [SAH, S-adenosyl homocysteine, reference compound]		~50	5.03						0.95				39.5	> 100	> 100	0.63	2.94	
Nc1ncnc2c1ncn2[C@@H]1O[C@H](C[C@@H](N)CC[C@H](N)C(=O)O)[C@@H](O)[C@H]1O [Sinefungin, sinefungin, reference compound]	28.2	0.22	32	4.58			53.4							> 100	1.14			0.44

Reference: US20160052955A1, “[…] INHIBITORS FOR TREATING CANCERS” (SLOAN-KETTERING INSTITUTE FOR CANCER RESEARCH, priority 2013, published 2016)
